What was measured:
Format in all cases: cell-based, human
[1] = test system: IL-8 release; experiment: LPS- or CSE-induced IL-8 release in isolated peripheral blood neutrophils (ELISA); settings: 6 h
Procedure: (§1) Neutrophils and monocytes were isolated from peripheral venous blood by standard laboratory procedures. In brief, peripheral venous blood was mixed with dextran 500 at 3% (in 0.9% saline) in a proportion of 2:1. This mixture was incubated at room temperature for 30 min until erythrocytes were sedimented. The upper phase was carefully collected and added on Ficoll-Paque Histopaque 1077 (Amershan Pharmacia Biotech, Barcelona, Spain) density gradient in a proportion of 3:1. The two phases generated were centrifuged at 150 g, 4° C. for 30 min. Thus, the interface was collected to isolate monocytes, and the pellet obtained (which is consisted a mixture of neutrophils and low proportion of residual erythrocytes and traces of eosinophils and basophils) was resuspended in an erythrocyte lysis buffer (Biolegend, UK) for 5 min in ice. Cell suspension was washed two times with phosphate buffer (PBS).
CSE was prepared as previously outlined (Milara et al.; Ortiz et al.). Briefly, the smoke of a research cigarette (2R4F; Tobacco Health Research, University of Kentucky, KY, USA) was generated by a respiratory pump (Apparatus Rodent Respirator 680; Harvard, Germany) through a puffing mechanism related to the human smoking pattern (3 puff/min; 1 puff 35 ml; each puff of 2 s duration with 0.5 cm above the filter) and was bubbled into a flask containing 25 ml of pre-warmed (37° C.) RPMI 1640 culture medium supplemented as describe above. The CSE solution was sterilized by filtration through a 0.22-μm cellulose acetate sterilizing system (Corning, N.Y.). The resultant CSE solution was considered to be 100% CSE and was used for experiments within 30 min of preparation. CSE 10% corresponds approximately to the exposure associated with smoking two packs per day (Su et al., 1998). The quality of the prepared CSE solution was assessed based on the absorbance at 320 nm, which is the specific absorption wavelength of peroxynitrite. Stock solutions with an absorbance value of 3.0±0.1 were used. To test for cytotoxicity from CSE, isolated neutrophils and monocytes were treated with CSE concentrations of up to 5% for 24.
(§2) Peripheral neutrophil cell suspension was adjusted to 500×10^3 cells per well in 24-well plates and incubated in RPMI culture medium for 1 h into the incubator at 37° C., 5% CO2. […] Both the stimulus and drug were remained together for 6 h. Supernatants were collected and centrifuged at 120 g for 5 min, and the free-cell supernatant was used to measure IL-8, MMP-9, IL-1β, GM-CSF and CCL-5.
(§3) IL-8 was determined by using commercially available enzyme-linked immunosorbent assay kit for IL-8 (R&D Systems, UK) according to the manufacturer's protocol. MMP-9, IL-1β, GM-CSF and CCL-5 were measured by LUMINEX technology according to the manufacturer's protocol.
(§4) Data were presented as mean±SEM. IC50 values were calculated for each drug and their combinations. Statistical analysis of results was carried out by analysis of variance (ANOVA) followed by Bonferroni test, by Student's t test, or by non-parametric tests as appropriate (GraphPad Software Inc, San Diego, Calif., USA). Significance was accepted when P<0.05. For clinical correlations of lung function and gene expression from neutrophils the non-parametric Spearman correlation analysis was carried out.

[2] = test system: IL-1β release; experiment: LPS-induced IL-1β release in isolated peripheral blood neutrophils (LUMINEX); settings: LPS (1 μg/ml), 6 h
Procedure: as §1, §2, §3, §4

[3] = test system: GM-CSF release; experiment: LPS-induced GM-CSF release in isolated peripheral blood neutrophils (LUMINEX); settings: LPS (1 μg/ml), 6 h
Procedure: as §1, with “The upper phase was carefully collected and added on Ficoll-Paque Histopaque 1077 (Amershan Pharmacia Biotech, Barcelona, Spain) density gradient in a proportion of 3:1.” left out
as §2, §3, §4

[4] = test system: CCL-5 release; experiment: LPS-induced CCL-5 release in isolated peripheral blood neutrophils (LUMINEX); settings: LPS (1 μg/ml), 6 h
Procedure: as §1, §2, §3, §4

[5] = test system: MIF; experiment: Real time RT-PCR of MIF mRNA in CSE-stimulated neutrophils from COPD patients; settings: RNO 1 nM and 1 μM, DEX 1 μM, RNO 1 nM plus DEX 1 μM, NAC 1 mM for 1 h, then CSE 5% 6 h
Procedure: Neutrophils and monocytes were isolated from peripheral venous blood by standard laboratory procedures. In brief, peripheral venous blood was mixed with dextran 500 at 3% (in 0.9% saline) in a proportion of 2:1. This mixture was incubated at room temperature for 30 min until erythrocytes were sedimented. The upper phase was carefully collected and added on Ficoll-Paque Histopaque 1077 (Amershan Pharmacia Biotech, Barcelona, Spain) density gradient in a proportion of 3:1. The two phases generated were centrifuged at 150 g, 4° C. for 30 min. […]
CSE was prepared as previously outlined (Milara et al.; Ortiz et al.). […] The quality of the prepared CSE solution was assessed based on the absorbance at 320 nm, which is the specific absorption wavelength of peroxynitrite. Stock solutions with an absorbance value of 3.0±0.1 were used. […]
Total RNA was obtained from isolated neutrophils under basal conditions or after different drug and stimulation periods defined above by using TriPure® Isolation Reagent (Roche, Indianapolis, USA). […] Relative quantification of these transcripts was determined with the 2^−ΔΔCt method using glyceraldehyde phosphate dehydrogenase (GAPDH) as endogenous control (Applied Biosystems; 4352339E) and normalized to control group as previously described (Milara et al., 2009).
Then, mRNA was isolated and quantified for different genes.

[6] = CSE 5%, neutrophils from COPD patients
[7] = CSE 5%, neutrophils from HEALTHY
[8] = LPS (1 μg/ml), neutrophils from COPD patients
[9] = LPS (1 μg/ml), neutrophils from HEALTHY

Question: What does the source list for `O=C(Nc1c(Cl)c[n+]([O-])cc1Cl)c1ccc(OC(F)F)c(OCC2CC2)c1` [RNO, roflumilast N-oxide]?
Answer: -log IC50, inhibition of IL-8 release [1, 6]: 7.92 ± 0.1; Maximal % Inhibition of IL-8 release [1, 6]: 88.9 ± 5.62%; -log IC50, inhibition of IL-8 release [1, 7]: 7.95 ± 0.12; Maximal % Inhibition of IL-8 release [1, 7]: 90.4 ± 5.4%; -log IC50, inhibition of IL-8 release [1, 8]: 7.44 ± 0.24; Maximal % Inhibition of IL-8 release [1, 8]: 48.70 ± 5.18%; -log IC50, inhibition of IL-8 release [1, 9]: 7.46 ± 0.26; Maximal % Inhibition of IL-8 release [1, 9]: 40.50 ± 4.55%; -log IC50, inhibition of IL-1β release ([2]; neutrophils from COPD patients): 7.82 ± 0.21; Maximal % Inhibition of IL-1β release ([2]; neutrophils from COPD patients): 66.69 ± 6.86%; -log IC50, inhibition of IL-1β release ([2]; neutrophils from HEALTHY): 7.73 ± 0.22; Maximal % Inhibition of IL-1β release ([2]; neutrophils from HEALTHY): 67.08 ± 6.63%; -log IC50, inhibition of GM-CSF release ([3]; neutrophils from COPD patients): 8.10 ± 0.22; Maximal % Inhibition of GM-CSF release ([3]; neutrophils from COPD patients): 86.6 ± 8.04%; -log IC50, inhibition of GM-CSF release ([3]; neutrophils from HEALTHY): 8.25 ± 0.21; Maximal % Inhibition of GM-CSF release ([3]; neutrophils from HEALTHY): 78.87 ± 6.57%; -log IC50, inhibition of CCL-5 release ([4]; neutrophils from COPD patients): 8.77 ± 0.35; Maximal % Inhibition of CCL-5 release ([4]; neutrophils from COPD patients): 83.01 ± 6.74%; -log IC50, inhibition of CCL-5 release ([4]; neutrophils from HEALTHY): 8.62 ± 0.14; Maximal % Inhibition of CCL-5 release ([4]; neutrophils from HEALTHY): 79.34 ± 3.63%; effect on CSE-induced increase of MIF mRNA expression [5]: reversed the effect of CSE
